# Data reported in patent publication US6503881B2 (priority 1996, dated 2003).
# Read-outs that look alike come from different tables or passages of the source.
# How the values were obtained:
# [1] = tested on: microorganisms with acquired resistance
# [2] = tested on: inherently resistant microorganisms
# [3] = E. coli ECO3, pair Mupirocin / MBI 11D18CN
# [4] = S. aureus 19 MRSA, pair Piperacillin / MBI 11D18CN
substance,measurement,setting,value
W R I W K P K W R L P K W [MBI 11D18CN],Peptide MIC + Tobramycin,[1]; A. baumannii ABI001,4 µg/mL
same,Tobramycin MIC + Peptide,[1]; A. baumannii ABI001,4 µg/mL
same,Peptide MIC Alone,[1]; A. baumannii ABI001 (7. Tobramycin),64 µg/mL
same,Peptide MIC + Tobramycin,[1]; A. baumannii ABI002,0.5 µg/mL
same,Tobramycin MIC + Peptide,[1]; A. baumannii ABI002,4 µg/mL
same,Peptide MIC Alone,[1]; A. baumannii ABI002 (7. Tobramycin),16 µg/mL
same,Peptide MIC + Piperacillin,[1]; A. calcoaceticus 3,8 µg/mL
same,Piperacillin MIC + Peptide,[1]; A. calcoaceticus 3,8 µg/mL
same,Peptide MIC Alone,[1]; A. calcoaceticus 3 (6. Piperacillin),32 µg/mL
same,Peptide MIC + Piperacillin,[1]; E. cloacae 9,16 µg/mL
same,Piperacillin MIC + Peptide,[1]; E. cloacae 9,16 µg/mL
same,Peptide MIC Alone,[1]; E. cloacae 9 (6. Piperacillin),64 µg/mL
same,Peptide MIC + Piperacillin,[1]; E. cloacae 10,16 µg/mL
same,Piperacillin MIC + Peptide,[1]; E. cloacae 10,16 µg/mL
same,Peptide MIC Alone,[1]; E. cloacae 10 (6. Piperacillin),32 µg/mL
same,Peptide MIC + Vancomycin,[1]; E. faecalis EFS003,32 µg/mL
same,Vancomycin MIC + Peptide,[1]; E. faecalis EFS003,2 µg/mL
same,Peptide MIC Alone,[1]; E. faecalis EFS003 (8. Vancomycin),64 µg/mL
same,Peptide MIC + Vancomycin,[1]; E. faecalis EFS007,8 µg/mL
same,Vancomycin MIC + Peptide,[1]; E. faecalis EFS007,1 µg/mL
same,Peptide MIC Alone,[1]; E. faecalis EFS007 (8. Vancomycin),16 µg/mL
same,Peptide MIC + Vancomycin,[1]; E. faecalis EFS009,4 µg/mL
same,Vancomycin MIC + Peptide,[1]; E. faecalis EFS009,2 µg/mL
same,Peptide MIC Alone,[1]; E. faecalis EFS009 (8. Vancomycin),8 µg/mL
same,Peptide MIC + Vancomycin,[1]; E. faecium EFM004,4 µg/mL
same,Vancomycin MIC + Peptide,[1]; E. faecium EFM004,0.5 µg/mL
same,Peptide MIC Alone,[1]; E. faecium EFM004 (8. Vancomycin),8 µg/mL
same,Peptide MIC + Vancomycin,[1]; E. faecium EFM007,4 µg/mL
same,Vancomycin MIC + Peptide,[1]; E. faecium EFM007,0.5 µg/mL
same,Peptide MIC Alone,[1]; E. faecium EFM007 (8. Vancomycin),8 µg/mL
same,Peptide MIC + Vancomycin,[1]; E. faecium EFM009,4 µg/mL
same,Vancomycin MIC + Peptide,[1]; E. faecium EFM009,1 µg/mL
same,Peptide MIC Alone,[1]; E. faecium EFM009 (8. Vancomycin),8 µg/mL
same,Peptide MIC + Vancomycin,[1]; E. faecium EFM010,4 µg/mL
same,Vancomycin MIC + Peptide,[1]; E. faecium EFM010,1 µg/mL
same,Peptide MIC Alone,[1]; E. faecium EFM010 (8. Vancomycin),8 µg/mL
same,Peptide MIC + Piperacillin,[1]; P. aeruginosa 23,4 µg/mL
same,Piperacillin MIC + Peptide,[1]; P. aeruginosa 23,64 µg/mL
same,Peptide MIC Alone,[1]; P. aeruginosa 23 (6. Piperacillin),64 µg/mL
same,Peptide MIC + Tobramycin,[1]; P. aeruginosa PA032,32 µg/mL
same,Tobramycin MIC + Peptide,[1]; P. aeruginosa PA032,4 µg/mL
same,Peptide MIC Alone,[1]; P. aeruginosa PA032 (7. Tobramycin),64 µg/mL
same,Ciprofloxacin MIC + Peptide,[1]; P. aeruginosa PA77,0.5 µg/mL
same,Peptide MIC + Ciprofloxacin,[1]; P. aeruginosa PA77,32 µg/mL
same,Peptide MIC Alone,[1]; P. aeruginosa PA77 (3. Ciprofloxacin),128 µg/mL
same,Peptide MIC,"[1]; S. aureus MRSA 9, pair Mupirocin / MBI 11D18CN",2 µg/mL
same,Peptide MIC + Tobramycin,[1]; S. epidermidis SE080,1 µg/mL
same,Tobramycin MIC + Peptide,[1]; S. epidermidis SE080,4 µg/mL
same,Peptide MIC Alone,[1]; S. epidermidis SE080 (7. Tobramycin),2 µg/mL
same,Peptide MIC + Piperacillin,[1]; S. maltophilia 2,8 µg/mL
same,Piperacillin MIC + Peptide,[1]; S. maltophilia 2,16 µg/mL
same,Peptide MIC Alone,[1]; S. maltophilia 2 (6. Piperacillin),32 µg/mL
same,Peptide MIC + Piperacillin,[1]; S. maltophilia 14,8 µg/mL
same,Piperacillin MIC + Peptide,[1]; S. maltophilia 14,16 µg/mL
same,Peptide MIC Alone,[1]; S. maltophilia 14 (6. Piperacillin),16 µg/mL
same,Peptide MIC + Tobramycin,[1]; S. maltophilia SMA027,16 µg/mL
same,Tobramycin MIC + Peptide,[1]; S. maltophilia SMA027,4 µg/mL
same,Peptide MIC Alone,[1]; S. maltophilia SMA027 (7. Tobramycin),>128 µg/mL
same,Peptide MIC + Tobramycin,[1]; S. maltophilia SMA029,8 µg/mL
same,Tobramycin MIC + Peptide,[1]; S. maltophilia SMA029,2 µg/mL
same,Peptide MIC Alone,[1]; S. maltophilia SMA029 (7. Tobramycin),32 µg/mL
same,Peptide MIC + Piperacillin,[1]; S. marcescens 1,4 µg/mL
same,Piperacillin MIC + Peptide,[1]; S. marcescens 1,8 µg/mL
same,Peptide MIC Alone,[1]; S. marcescens 1 (6. Piperacillin),>128 µg/mL
same,FIC,"[1]; peptide + Ciprofloxacin, P. aeruginosa PA77",0.50
same,FIC,"[1]; peptide + Piperacillin, A. calcoaceticus 3",0.38
same,FIC,"[1]; peptide + Piperacillin, E. cloacae 9",0.31
same,FIC,"[1]; peptide + Piperacillin, E. cloacae 10",0.56
same,FIC,"[1]; peptide + Piperacillin, P. aeruginosa 23",0.56
same,FIC,"[1]; peptide + Piperacillin, S. maltophilia 2",0.50
same,FIC,"[1]; peptide + Piperacillin, S. maltophilia 14",0.63
same,FIC,"[1]; peptide + Piperacillin, S. marcescens 1",0.14
same,FIC,"[1]; peptide + Tobramycin, A. baumannii ABI001",0.31
same,FIC,"[1]; peptide + Tobramycin, A. baumannii ABI002",9.53
same,FIC,"[1]; peptide + Tobramycin, P. aeruginosa PA032",11.00
same,FIC,"[1]; peptide + Tobramycin, S. epidermidis SE080",0.75
same,FIC,"[1]; peptide + Tobramycin, S. maltophilia SMA027",9.19
same,FIC,"[1]; peptide + Tobramycin, S. maltophilia SMA029",0.27
same,FIC,"[1]; peptide + Vancomycin, E. faecalis EFS003",0.75
same,FIC,"[1]; peptide + Vancomycin, E. faecalis EFS007",0.63
same,FIC,"[1]; peptide + Vancomycin, E. faecalis EFS009",0.75
same,FIC,"[1]; peptide + Vancomycin, E. faecium EFM004",0.50
same,FIC,"[1]; peptide + Vancomycin, E. faecium EFM007",0.50
same,FIC,"[1]; peptide + Vancomycin, E. faecium EFM009",0.52
same,FIC,"[1]; peptide + Vancomycin, E. faecium EFM010",0.59
same,FIC,[2],0.56
same,MIC Alone,[2],32 µg/mL
same,MIC in combination,[2],16 µg/mL
same,FIC,[2]; [3],0.26
same,MIC Alone,[2]; [3],4 µg/mL
same,MIC in combination,[2]; [3],1 µg/mL
same,FIC,[2]; [4],0.52
same,MIC Alone,[2]; [4],4 µg/mL
same,MIC in combination,[2]; [4],2 µg/mL
